Test results from patent publication US20120015390A1, “Methods for the Detection and Treatment of Aberrant Prion Disease” (PROTEA BIOPHARMA N.V., priority 2009, published 2012).
Values joined by “and” are separate entries in the source; they are usually repeats but may differ in a detail not shown here. Equal values may be shown once.

Tests used:
[1] = system: aberrant membrane NADH oxidase; assay type: cell-based
[2] = system: NADH oxidase; assay type: cell-based
[3] = system: NADH-oxidase; details: in vivo

Row | Compound | CPM NADH hypotoon [1] | CPM NADH isotoon [1] | CPM iso/hypo [1] | chemiluminescence response after addition of substance and hypotonic NADH [2] | chemiluminescence response after addition of substance and isotonic NADH [2] | isotonic NADH induced lucigenin-dependent chemiluminescence in urine [3] | induction of aberrant NADH-oxidase (higher counts under isotonic conditions) [1] | CPM [2] | formation of cell surface associated aberrant NADH oxidase [2]
1 | [Cl][Cd][Cl] [CdCl2] | 376 CPM | 114 CPM | 0.30 | – | – | – | – | – | –
2 | C[S+](C)[O-] [DMSO] | – | – | – | significant concentration-dependent increase | not observed | increases | – | – | –
3 | [Cl][Ni][Cl] [NiCl2] | 860 CPM | 913 CPM | 1.06 | – | – | – | suggest induction of aberrant NADH-oxidase | – | –
4 | O=[N+]([O-])[O-].O=[N+]([O-])[O-].[Pb+2] [Pb(NO3)2] | 817 CPM | 1402 CPM | 1.71 | – | – | – | suggest induction of aberrant NADH-oxidase | – | –
5 | C[CH2][Hg][S]c1ccccc1C(=O)[O-].[Na+] [Thimerosal] | 3338 CPM | 2380 CPM | 0.71 | – | – | – | – | – | –
6 | Heparin | – | – | – | significant concentration-dependent increase | not observed | – | – | 17740 CPM and 15303 CPM and 14082 CPM and 10372 CPM and 9192 CPM | –
7 | HgCl2 | 18 CPM | 101 CPM | 5.61 | – | – | – | suggest induction of aberrant NADH-oxidase | – | induces the formation of cell surface associated aberrant NADH oxidase
